This note sets out measurements from PMC9228592, “Dichloroacetyl Amides of 3,5-Bis(benzylidene)-4-piperidones Displaying Greater Toxicity to Neoplasms than to Non-Malignant Cells” (Medicines, 2022).

Holding throughout (assay type): cell-based, human
For one data set, the system named is procaspase 3. Briefly: Procaspase 3 cleavage in Ca9-22 cells (Western blot). The conditions noted are these: 0.2 and 0.6 µM, 20 h. How it is done:
(§1) The effect of 20 h incubation of different concentrations of 1k and 2a with Ca9-22 cells on the cleavage of PARP and procaspase 3 cleavage was undertaken using a reported procedure. In brief, the control and treated Ca9-22 cells at near confluent phase were collected and lysed, and protein samples of cell lysates (15 µg) were applied to SDS-polyacrylamide gel electrophoresis. After electrophoresis, the separated proteins were transferred onto a PVDF (polyvinylidene fluoride) filter. The blots were treated in skim milk and then probed for 120 min with a primary antibody cocktail (1:250) from an Apoptosis Western Blot Cocktail kit (purchased from Abcam, Cambridge, UK). The blots were washed and probed with horseradish peroxidase conjugated secondary antibody cocktail (1:100). Immunoreactivities were determined using Amer-sham ECL Select. Images were acquired using ChemiDoc MP System and Image Lab 4.1 software (Bio-Rad Laboratories, Hercules, CA, USA).

Data set [1] concerns Ca9-22 squamous cell carcinoma cells. Kind of data set: Cytotoxicity (MTT, 48 h) against Ca9-22 cells. The conditions noted are these: Homo sapiens, Ca9-22; 48 h, MTT, mean ± S.D. of triplicate. The text has this:
(§2) The target cells used in our study were human oral squamous cell carcinoma cell lines Ca9-22 (purchased from RIKEN Cell Bank, Tukuba, RCB-1976), HSC-2 (RCB1945), HSC-3 (RCB1975), HSC-4 (RCB1902), and three human normal oral cells, gingival fibroblast (HGF), periodontal ligament fibroblast (HPLF), and pulp cells (HPC) [established from the first premolar extracted tooth in the lower jaw (because of dysfunctional position or orthodontic treatment) and periodontal tissues of a child, according to the guideline of the Institutional Board of Meikai University Ethics Committee (No. A0808)], after obtaining informed consent from the patients. These cells were incubated for 48 h with the indicated concentrations of test samples or reference compounds sodium dichloroacetate (purchased from Sigma-Aldrich Chemical Company, Saint Louis, MO, USA), 5-fluorouracil (5-FU) from Kyowa (Tokyo, Japan), and doxorubicin (DXR) (St. Louis, MO, USA) and vehicle (DMSO) (0.008, 0.016, 0.031, 0.063, 0.125, 0.25, 0.5, and 1%) in Dulbecco’s Modified Eagle Medium (DMEM) media, which was supplemented with 10% heat-inactivated fetal bovine serum. Cell viability was determined by the MTT method. Cytotoxicity caused by the vehicle (DMSO) was subtracted.
(§3) SI was calculated by dividing the average CC50 value (concentration of the compound to kill 50% of the cells) of the compound towards HGF, HPLF, and HPC cells by the CC50 value of the compound against a specific neoplastic cell line.

Data set [2] concerns Ca9-22, HSC-2, HSC-3, and HSC-4 cells. Kind of data set: Average cytotoxicity, selectivity and PSE over the four carcinoma lines.
Text: as §2, §3
PSE reflects both the potencies and differences in cytotoxicity to neoplasms and non-malignant cells. This value was the product of the reciprocal of the average CC50 value of the compounds towards Ca9-22, HSC-2, HSC-3, and HSC-4 cells and the average SI value × 100.

A short description of data set [3]: Cytotoxicity (MTT, 48 h) against HPLF non-malignant cells. Conditions: human, normal periodontal ligament fibroblasts (HPLF), mean ± S.D. of triplicate.
Text: as §2

The subject of data set [4] is HSC-3 squamous cell carcinoma cells. Kind of data set: Cytotoxicity (MTT, 48 h) against HSC-3 cells.
Text: as §2, §3

A short description of data set [5]: Cytotoxicity (MTT, 48 h) against HPC non-malignant cells. Conditions: female, human, normal pulp cells (HPC), mean ± S.D. of triplicate.
Text: as §2

In data set [6] the test system is Ca9-22 cells. Kind of data set: Cell cycle assay in Ca9-22 cells. The conditions noted are these: 20 h. As to the method: The evaluation of varying quantities of 1d,e,k on the cell cycle in Ca9-22 cells was undertaken by a literature method. In brief, Ca9-22 cells were treated for 20 h without (control) or with the indicated concentrations of the test samples. To neglect the cytotoxicity effect of DMSO, all samples contained 0.1% DMSO. Cells (approximately 10^6 cells) were harvested, fixed for 1 h on ice with 1% paraformaldehyde, washed twice by phosphate-buffered saline, treated for 30 min at 37 °C with 0.2 mg/mL RNase A (ribonuclease A), stained for 15 min at room temperature with 0.01% propidium iodide in the presence of 0.01% NP-40 (nonyl phenoxypolyethoxyethanol) to prevent cell aggregation, filtered through Falcon® cell strainers (pore size: 40 µm) (Corning, NY, USA), subjected to cell sorting (SH800 Series; SONY Imaging Products and Solutions Inc., Kanagawa, Japan), and then analyzed with Cell Sorter Software version 2.1.2. (SONY Imaging Products and Solutions Inc., Kanagawa, Japan).

A further data set concerns PARP. Kind of data set: PARP cleavage in Ca9-22 cells (Western blot). The conditions noted are these: 0.2 and 0.6 µM, 20 h. As to the method:
as §1

A short description of data set [7]: Cytotoxicity (MTT, 48 h) against HGF non-malignant cells. The conditions noted are these: human, normal gingival fibroblasts (HGF), mean ± S.D. of triplicate.
Text: as §2

Data set [8] relates to HSC-4 squamous cell carcinoma cells. Briefly: Cytotoxicity (MTT, 48 h) against HSC-4 cells.
Text: as §2, §3

Data set [9] in a line: Average cytotoxicity over the three non-malignant cells. Conditions: female, human, normal oral cells HGF, HPLF and HPC (average over the three).
Text: as §2

The test system of data set [10] is HSC-2 squamous cell carcinoma cells. Briefly: Cytotoxicity (MTT, 48 h) against HSC-2 cells.
Text: as §2, §3

The subject of data set [11] is Ca9-22 cells. Briefly: Mitotic accumulation in Ca9-22 cells. The conditions noted are these: two highest concentrations of 3, 10, 30 times the CC50 value, 20 h. How it is done: Another way in which cytotoxicity could occur is by initiating mitosis. In order to examine this possibility, different concentrations of the potent cytotoxin 1k that were 3, 10, and 30 times the CC50 value were incubated with Ca9-22 cells for 20 h. […] In order to explore the possibility that the dichloroacetyl group contributed to this effect, concentrations of 2a that were 3, 10, and 30 times the CC50 concentration were incubated with Ca9-22 cells for 20 h. […] The question arose as to the way in which this observation could be useful in anticancer drug design. Cells which are stimulated to divide are likely more sensitive to a subsequent attack of a cytotoxin when cells are in a resting stage, for example.

Each structure is given as a SMILES string.

As for `O=C1/C(=C/c2ccc([N+](=O)[O-])cc2)CN(C(=O)C(Cl)Cl)C/C1=C\c1ccc([N+](=O)[O-])cc1` [Compound 1k], in the data set on procaspase 3, the “cleavage of procaspase to caspase 3” value is listed as “cleavage of procaspase to caspase 3 was observed”. In addition, the CC50 was 20 ± 10 nM in data set [1]; 100 nM in [2] (Homo sapiens, average over Ca9-22, HSC-2, HSC-3, HSC-4); 100 ± 30 nM in data set [4] (Homo sapiens, HSC-3, 48 h, MTT, mean ± S.D. of triplicate); 180 ± 40 nM in data set [8] (Homo sapiens, HSC-4, 48 h, MTT, mean ± S.D. of triplicate); 80 ± 10 nM in data set [10] (Homo sapiens, HSC-2, 48 h, MTT, mean ± S.D. of triplicate). The “average potency figure relative to 5-FU (times lower)” value in data set [2] (average CC50 compared with 5-FU) was determined as 310 times. Also, in [2] (average of SI over Ca9-22, HSC-2, HSC-3, HSC-4), the “Average SI” value stood at 28.1. Further, the CC50 at 48 h was 760 ± 130 nM in data set [3], 560 ± 80 nM in data set [5], 3010 ± 330 nM in data set [7] and 1440 nM in [9]. In [4] (average CC50 towards HGF, HPLF, HPC divided by CC50 against HSC-3), the “SI (HSC-3)” value came to 14.4. Further, the subG1 population result in the data set with Ca9-22 cells [6] (0.8 µM) is “slight increase”. Also, the G2M cell population entry with Ca9-22 cells [6] (0.8 µM, p < 0.05) is “most prominent increase”. Also, in the data set with Ca9-22 cells [6] (0.1, 0.2, and 0.4 µM), the “effect on the cell cycle” value is “little effects”. Besides, in the data set with PARP, the PARP cleavage result was “PARP was cleaved”. Moreover, in data set [8] (average CC50 towards HGF, HPLF, HPC divided by CC50 against HSC-4), the “SI (HSC-4)” value was 8.00. Also, in [10] (48 h, MTT, mean ± S.D. of triplicate), the “HSC-2 CC50” value is “double-digit nanomolar”. Further, the “SI (HSC-2)” value in [10] (average CC50 towards HGF, HPLF, HPC divided by CC50 against HSC-2) came to 18.0. For the same molecule, the “percentage of the cells undergoing mitosis” value in the data set with Ca9-22 cells [11] is given as “increased significantly”.
